Data on 57 compounds can be found in patent US9315494B2, “Alkyl-amide-substituted pyridyl compounds useful as modulators of IL-12, IL-23 and/or IFNα responses” (Bristol-Myers Squibb Company, priority 2012, dated 2016).

In assay [1] the test system is IFNα-stimulated STAT-dependent luciferase reporter in Kit225 T cells. Description: Kit225 T cell assay, IFNα stimulated STAT-dependent luciferase reporter. The assay is classed as cell-based, human. The settings on record: Kit225 T cells, 200 U/mL human recombinant IFNα, 5-6 hours, luciferase; read-out: IFNα (Kit225 T Cell Inhibition Data). As to the method:
(§1) Kit225 T cells with a stably-integrated STAT-dependent luciferase reporter were plated in RPMI (Gibco) containing 10% heat-inactivated FBS (Gibco) and 100 U/mL PenStrep (Gibco). The cells were then stimulated with either 20 ng/mL human recombinant IL-23 or 200 U/mL human recombinant IFNα (PBL InterferonSource) for 5-6 hours. Luciferase expression was measured using the STEADY-GLO® Luciferase Assay System (Promega) according to the manufacturer's instructions.
(In general: A reporter such as luciferase makes a cellular process visible.)

Assay [2] relates to IL-23-stimulated STAT-dependent luciferase reporter in Kit225 T cells. Description: Kit225 T cell assay, IL-23 stimulated STAT-dependent luciferase reporter. The assay is classed as cell-based, human. The settings on record: Kit225 T cells, 20 ng/mL human recombinant IL-23, 5-6 hours, luciferase; read-out: IL23 (Kit225 T Cell Inhibition Data). As to the method:
as §1

As to `CNC(=O)c1cnc(Nc2cccc(F)n2)cc1Nc1cc(F)ccc1S(C)(=O)=O` [Example 54], the IC50 came out at 160 nM in assay [1] and 190 nM in assay [2].

Take `CNC(=O)c1cnc(Nc2ccc(F)cn2)cc1Nc1cc(F)ccc1S(C)(=O)=O` [Example 55]: the IC50 in assay [1] is 170 nM; in assay [2], 130 nM.

For `CNC(=O)c1cnc(Nc2cc(C)ccn2)cc1Nc1cc(F)ccc1S(C)(=O)=O` [Example 56], the results for the IC50 in assay [1] and in assay [2] were 50 nM and 120 nM, respectively.

As to `CNC(=O)c1cnc(Nc2cc(F)ccn2)cc1Nc1cc(F)ccc1S(C)(=O)=O` [Example 57], the IC50 in assay [1] stood at 190 nM; in assay [2], 160 nM.

Turning to `CNC(=O)c1cnc(Nc2cc(C#N)ccn2)cc1Nc1cc(F)ccc1S(C)(=O)=O` [Example 58], the values for the IC50 in assay [1] and in assay [2] were 140 nM and 220 nM, respectively.

Consider `CNC(=O)c1cnc(Nc2ccc(C(F)(F)F)cn2)cc1Nc1ccccc1S(C)(=O)=O` [Example 59], for which the values for the IC50 in assay [1] and in assay [2] were 120 nM and 370 nM, respectively.

In the case of `CNC(=O)c1cnc(Nc2cc(C)c(F)cn2)cc1Nc1ccccc1S(C)(=O)=O` [Example 60], the IC50 in assay [1] is 40 nM; in assay [2], 60 nM.

Consider `CNC(=O)c1cnc(Nc2ccc(F)cn2)cc1Nc1ccccc1C(N)=O` [Example 63], for which the IC50 was determined as 410 nM in assay [1] and 774 nM in assay [2].

On to `CNC(=O)c1cnc(Nc2ccc(F)cn2)cc1Nc1cc(F)ccc1F` [Example 64], for which the IC50 in assay [1] came out at 9030 nM; in assay [2], 5950 nM.

For the compound `CNC(=O)c1cnc(Nc2ccc(F)cn2)cc1Nc1ccccc1SC` [Example 65], the IC50 is 370 nM in assay [1] and 481 nM in assay [2].

Take `CNC(=O)c1cnc(Nc2cccc(C)n2)cc1Nc1ccccc1C(N)=O` [Example 67]: the IC50 is 140 nM in assay [1] and 263 nM in assay [2].

In the case of `CNC(=O)c1cnc(Nc2ccccn2)cc1Nc1ccccc1C(N)=O` [Example 68], the IC50 was found to be 240 nM in assay [1] and 502 nM in assay [2].

In the case of `CNC(=O)c1cnc(Nc2ncccc2F)cc1Nc1ccccc1C(N)=O` [Example 69], the IC50 came to 1310 nM in assay [1] and 1470 nM in assay [2].

As for `CNC(=O)c1cnc(Nc2ccc(OC)cn2)cc1Nc1ccccc1C(N)=O` [Example 70], the IC50 came to 730 nM in assay [1] and 820 nM in assay [2].

`CNC(=O)c1cnc(Nc2cc(F)ccn2)cc1Nc1ccccc1C(N)=O` [Example 71]: the IC50 was 760 nM in assay [1] and 574 nM in assay [2].

Turning to `CNC(=O)c1cnc(Nc2ccc(C)cn2)cc1Nc1ccccc1C(N)=O` [Example 72], the IC50 came to 380 nM in assay [1] and 578 nM in assay [2].

For `CNC(=O)c1cnc(Nc2cccc(F)n2)cc1Nc1ccccc1C(N)=O` [Example 74], the IC50 in assay [1] turned out to be 260 nM; in assay [2] it was 236 nM.

`CNC(=O)c1cnc(Nc2cc(-c3ccccc3)ccn2)cc1Nc1ccccc1C(N)=O` [Example 75]: the IC50 was 1730 nM in assay [1] and 2030 nM in assay [2].

Turning to `CNC(=O)c1cnc(Nc2ccc(-c3ccccc3)cn2)cc1Nc1ccccc1C(N)=O` [Example 76], the figures for the IC50 in assay [1] and in assay [2] were 740 nM and 854 nM, respectively.

Regarding `CNC(=O)c1cnc(Nc2cccc(-c3ccccc3)n2)cc1Nc1ccccc1C(N)=O` [Example 77], the IC50 in assay [1] worked out at 350 nM; in assay [2], 538 nM.

For the compound `CNC(=O)c1cnc(Nc2cc(C)ccn2)cc1Nc1ccccc1C(N)=O` [Example 78], the IC50 is 120 nM in assay [1] and 388 nM in assay [2].

Consider `CNC(=O)c1cnc(Nc2ccc(C(F)(F)F)cn2)cc1Nc1ccccc1C(N)=O` [Example 82], for which the IC50 in assay [1] is 780 nM; in assay [2], 1230 nM.

Regarding `CNC(=O)c1cnc(Nc2ncccc2C)cc1Nc1ccccc1C(N)=O` [Example 83], the values for the IC50 in assay [1] and in assay [2] were 6940 nM and 5720 nM, respectively.

As for `CNC(=O)c1cnc(Nc2cc(C#N)ccn2)cc1Nc1ccccc1C(N)=O` [Example 84], the IC50 in assay [1] amounted to 350 nM; in assay [2], 369 nM.

Consider `CNC(=O)c1cnc(Nc2ccc(N3CCOCC3)cn2)cc1Nc1ccccc1C(N)=O` [Example 85], for which the IC50 in assay [1] turned out to be 630 nM; in assay [2], 1040 nM.

As to `CNC(=O)c1cnc(Nc2ccc(C#N)c(C)n2)cc1Nc1ccccc1C(N)=O` [Example 86], the results for the IC50 in assay [1] and in assay [2] were 430 nM and 1820 nM, respectively.

`CNC(=O)c1cnc(Nc2ccc(S(=O)(=O)N(C)C)cn2)cc1Nc1ccccc1C(N)=O` [Example 88]: the IC50 came to 890 nM in assay [1] and 2860 nM in assay [2].

As for `CNC(=O)c1cnc(Nc2cc3ccccc3cn2)cc1Nc1ccccc1C(N)=O` [Example 89], the IC50 was 370 nM in assay [1] and 343 nM in assay [2].

`CNC(=O)c1cnc(Nc2ncccc2Cl)cc1Nc1ccccc1C(N)=O` [Example 90]: the results for the IC50 in assay [1] and in assay [2] were 8260 nM and 7200 nM, respectively.

In the case of `CNC(=O)c1cnc(Nc2cc(C(F)(F)F)ccn2)cc1Nc1ccccc1C(N)=O` [Example 91], the IC50 in assay [1] was 420 nM; in assay [2] it was 567 nM.

As to `CNC(=O)c1cnc(Nc2ccc(C#N)cn2)cc1Nc1ccccc1C(N)=O` [Example 92], the IC50 worked out at 1540 nM in assay [1] and 3930 nM in assay [2].

For `CNC(=O)c1cnc(Nc2cccc(C(F)(F)F)n2)cc1Nc1ccccc1C(N)=O` [Example 95], the IC50 turned out to be 680 nM in assay [1] and 960 nM in assay [2].

`CNC(=O)c1cnc(Nc2ccc(F)cn2)cc1Nc1ccc(F)c(F)c1OC` [Example 96]: the IC50 in assay [1] is 210 nM; in assay [2] it was 257 nM.

Consider `CNC(=O)c1cnc(Nc2cc(C(N)=O)ccn2)cc1Nc1ccc(Cl)cc1OC` [Example 97], for which the IC50 in assay [1] was found to be 3250 nM; in assay [2], 3910 nM.

With `CNC(=O)c1cnc(Nc2ccc(-n3ccccc3=O)cn2)cc1Nc1ccc(Cl)cc1OC` [Example 98], the IC50 in assay [1] amounted to 280 nM; in assay [2] it was 480 nM.

`CNC(=O)c1cnc(Nc2ccc(F)cn2)cc1Nc1ccc(Cl)cc1OC` [Example 99]: the IC50 in assay [1] came out at 310 nM; in assay [2] it was 479 nM.

In the case of `CNC(=O)c1cnc(Nc2cc(C)ccn2)cc1Nc1ccc(F)c(F)c1OC` [Example 100], the results for the IC50 in assay [1] and in assay [2] were 120 nM and 158 nM, respectively.

Consider `CNC(=O)c1cnc(Nc2ccc(N3CCOCC3)cn2)cc1Nc1ccc(F)c(F)c1OC` [Example 101], for which the IC50 in assay [1] was found to be 80 nM; in assay [2], 200 nM.

For the compound `CNC(=O)c1cnc(Nc2ccc(N3C(=O)COCC3C)cn2)cc1Nc1ccc(Cl)cc1OC` (stereo not drawn) [Example 102], the IC50 in assay [1] is 150 nM; in assay [2] it was 368 nM.

Turning to `CNC(=O)c1cnc(Nc2ccc(N3CCCCC3=O)cn2)cc1Nc1ccc(Cl)cc1OC` [Example 103], the IC50 was determined as 330 nM in assay [1] and 398 nM in assay [2].

As for `CNC(=O)c1cnc(Nc2ccc(N3CCOC3=O)cn2)cc1Nc1ccc(Cl)cc1OC` [Example 105], the IC50 in assay [1] is 190 nM; in assay [2], 386 nM.

As to `CNC(=O)c1cnc(Nc2ccc(-n3cc(F)ccc3=O)cn2)cc1Nc1ccc(Cl)cc1OC` [Example 106], the IC50 in assay [1] was 180 nM; in assay [2], 439 nM.

With `CNC(=O)c1cnc(Nc2cccc(OC)n2)cc1Nc1ccc(Cl)cc1OC` [Example 108], the results for the IC50 in assay [1] and in assay [2] were 230 nM and 369 nM, respectively.

As to `CNC(=O)c1cnc(Nc2cccc(C)n2)cc1Nc1ccc(Cl)cc1OC` [Example 109], the IC50 in assay [1] came out at 210 nM; in assay [2] it was 948 nM.

For `CNC(=O)c1cnc(Nc2ccccn2)cc1Nc1ccc(Cl)cc1OC` [Example 110], the IC50 in assay [1] was found to be 420 nM; in assay [2], 998 nM.

Consider `CNC(=O)c1cnc(Nc2ccc(C)cn2)cc1Nc1ccc(Cl)cc1OC` [Example 111], for which the IC50 was 990 nM in assay [1] and 1300 nM in assay [2].

In the case of `CNC(=O)c1cnc(Nc2ccc(OC)cn2)cc1Nc1ccc(Cl)cc1OC` [Example 112], the values for the IC50 in assay [1] and in assay [2] were 400 nM and 717 nM, respectively.

In the case of `CNC(=O)c1cnc(Nc2cc(C)ccn2)cc1Nc1ccc(Cl)cc1OC` [Example 113], the IC50 stood at 200 nM in assay [1] and 876 nM in assay [2].

On to `CNC(=O)c1cnc(Nc2ccc3[nH]ccc3n2)cc1Nc1ccc(Cl)cc1OC` [Example 114], for which the IC50 in assay [1] is 1540 nM; in assay [2] it was 4550 nM.

For the compound `CNC(=O)c1cnc(Nc2cc(F)ccn2)cc1Nc1ccc(Cl)cc1OC` [Example 115], the IC50 is 440 nM in assay [1] and 632 nM in assay [2].

With `CNC(=O)c1cnc(Nc2cccc(-c3ccccc3)n2)cc1Nc1ccc(Cl)cc1OC` [Example 116], the IC50 was 750 nM in assay [1] and 2190 nM in assay [2].

Regarding `CNC(=O)c1cnc(Nc2cccc(C(F)(F)F)n2)cc1Nc1ccc(Cl)cc1OC` [Example 117], the figures for the IC50 in assay [1] and in assay [2] were 480 nM and 1980 nM, respectively.

Take `CNC(=O)c1cnc(Nc2ccc(C#N)c(C)n2)cc1Nc1ccc(Cl)cc1OC` [Example 118]: the IC50 in assay [1] was 570 nM; in assay [2], 1160 nM.

Take `CNC(=O)c1cnc(Nc2ccc(F)cn2)cc1Nc1ccc(F)cc1OC` [Example 119]: the IC50 in assay [1] was 860 nM; in assay [2], 2200 nM.

On to `CNC(=O)c1cnc(Nc2ccc(C(F)(F)F)cn2)cc1Nc1ccc(Cl)cc1OC` [Example 120], for which the figures for the IC50 in assay [1] and in assay [2] were 1880 nM and 4510 nM, respectively.

As for `CNC(=O)c1cnc(Nc2cc(C#N)ccn2)cc1Nc1ccc(Cl)cc1OC` [Example 121], the IC50 in assay [1] is 150 nM; in assay [2], 244 nM.

In the case of `CNC(=O)c1cnc(Nc2ccc(F)cn2)cc1Nc1ccccc1OC(F)F` [Example 122], the values for the IC50 in assay [1] and in assay [2] were 250 nM and 535 nM, respectively.
